A short description of series [1]: Plasma and brain concentration in rats (after PTZ-kindling). Type of series: in vivo. Particulars: for concentration at 45 min / Kp at 0.75 h: ip; for Kp at 0.75 h: 45 min. The protocol: One day after kindling procedure, selected rats (groups with n ≥ 5) were again pre-treated with the compounds of interest and sacrificed at the assumed peak times of brain concentration by CO2 inhalation. Blood was collected intracardially by heart centesis via glass pipettes supplemented with heparin-Na (ratiopharm, Ulm, Germany; 10μl of 5.000 I.U./ml) and separated by centrifuging (1500xg for 10 min) at 6–8°C. The plasma was stored at -20°C in plastic tubes. After blood sample collection, rats were decapitated and brains were quickly dissected. After removing the adherent blood by tissue paper and cutting off the cerebellum, the samples were fresh frozen using liquid nitrogen. Brain tissue was stored at -80°C and delivered to the different laboratories on dry ice. For mice (groups with n = 6), a similar procedure was used for the preparation of plasma and brain samples. In experiments in which AFC was co-administered with carbamazepine or ethosuximide, drug concentrations in plasma and brain were estimated to detect potential pharmacokinetic interactions.
Samples from experiments with AFC were analysed at the Lead Discovery Center (Dortmund, Germany). Briefly, AFC, carbamazepine and ethosuximide were extracted from plasma and homogenized brain by protein precipitation using acetonitrile. Resulting filtrates were analysed by liquid chromatography tandem-mass spectrometry (LC-MS/MS) using a Prominence UFLC system (Shimadzu, Duisburg, Germany) coupled to a QTrap 5500 instrument (ABSciex, Darmstadt, Germany). The compounds were separated on a Zorbax Eclipse Plus C18 column (Agilent Technologies, Santa Clara, CA, USA) with an acetonitrile/water gradient containing 0.1% formic acid as solvent. Chromatographic conditions and mass spectrometer parameters were optimized for each analyte. Plasma and brain concentrations of the compounds were calculated by means of a standard curve.
(§1) Plasma and brain samples from experiments with JNJ-47965567 were quantified at the Neuroscience Therapeutic Area, Janssen Research & Development (San Diego, CA, USA) using an API 4000 MS/MS system (Applied Biosystems, Concord, ON, Canada) interfaced with an Agilent 1100 Series HPLC (Agilent Technologies). To measure the percentage of P2X7R brain occupancy of JNJ-47965567, ex vivo receptor binding autography was performed as recently described. Briefly, 20 μm-thick hippocampal slices were prepared and P2X7R radioligand binding was determined at room temperature with 10 nM [^3H] JNJ-54232334 (Janssen) in 50 mM Tris-HCl incubation buffer containing 0.1% bovine serum albumin. The non-specific binding was measured using adjacent sections incubated in the additional presence of 100 μM A-740003 (Tocris Bioscience, Bristol UK). Sections were incubated for 1 min, washed in ice-cold incubation buffer (4 times, 5 min each), followed by two dips in deionized water and rapidly dry under a stream of cold air before acquisition. Quantitative analysis was performed using the Tracer ß-Imager with M3 Vision software (Biospace Lab, Paris, France). Ex vivo receptor labelling was expressed as the percentage of receptor labelling in corresponding brain areas of vehicle-treated control animals.

Another series deals with T1, P2X7R (Rattus norvegicus, UniProt Q64663).
T1 construct: from tissue; host or cells: rat (Wistar) brain, hippocampal slices
T1 sequence (Q64663 1-595): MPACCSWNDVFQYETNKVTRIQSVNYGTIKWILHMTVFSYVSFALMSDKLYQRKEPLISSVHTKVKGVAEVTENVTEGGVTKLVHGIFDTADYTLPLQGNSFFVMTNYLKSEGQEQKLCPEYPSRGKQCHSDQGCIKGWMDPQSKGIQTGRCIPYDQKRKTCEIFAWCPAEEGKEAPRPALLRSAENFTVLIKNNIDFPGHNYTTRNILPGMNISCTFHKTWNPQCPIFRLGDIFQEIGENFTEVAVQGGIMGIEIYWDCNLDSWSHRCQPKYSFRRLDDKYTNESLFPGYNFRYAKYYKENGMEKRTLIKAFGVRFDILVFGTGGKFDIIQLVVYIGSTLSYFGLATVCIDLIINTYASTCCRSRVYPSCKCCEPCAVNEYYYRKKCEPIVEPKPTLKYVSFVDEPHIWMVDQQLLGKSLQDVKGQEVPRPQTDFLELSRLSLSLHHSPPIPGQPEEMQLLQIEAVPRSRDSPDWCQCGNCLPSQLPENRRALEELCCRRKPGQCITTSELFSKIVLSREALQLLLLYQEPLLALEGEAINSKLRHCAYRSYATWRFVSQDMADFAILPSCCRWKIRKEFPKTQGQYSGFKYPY
In words: P2X7R brain occupancy, ex vivo receptor binding autoradiography. It is filed as in vivo. Particulars: sc, rats, 15 mg/kg s.c., hippocampal slices, [3H] JNJ-54232334 autoradiography. Here is the method: as §1

Like-named read-outs stand apart in the source and are kept apart here.

For the molecule `CCOc1ccc(Nc2ccc(/C(=C3C=C/C(=[N+](/CC)Cc4cccc(S(=O)(=O)[O-])c4)C=C/3C)c3ccc(N(CC)Cc4cccc(S(=O)(=O)O)c4)cc3C)cc2)cc1` [Brilliant Blue G], the mean brain concentration in series [1] (50 mg/kg i.p., 45 min before, n = 7) is 20 ± 2 nM. For the same molecule, the concentration at 45 min in series [1] (rat, brain, 50 mg/kg i.p., 45 min after injection, read-out: rat brain concentration) turned out to be 20 nM; in series [1] (rat, plasma, 50 mg/kg i.p., 45 min before, n = 7, read-out: mean blood plasma concentration), 1600 ± 300 nM. The Kp at 0.75 h in series [1] (rat, brain, 50 mg/kg, 50 mg/kg i.p., read-out: brain to plasma ratio) amounted to 0.01.
At P2X7R, `O=C(NCC1(N2CCN(c3ccccc3)CC2)CCOCC1)c1cccnc1Sc1ccccc1` [JNJ-47965567, N-[[4-(4-phenyl-piperazin-1-yl)tetrahydro-2H-pyran-4-yl]-methyl]-2-(phenyl-thio) nicotinamide] showed a receptor occupancy at 15 mg/kg of 98 ± 2%. Besides, the mean brain concentration in series [1] (15 mg/kg s.c., 30 min before, n = 5, listed as JNJ, 15 mg/kg) turned out to be 5000 ± 1100 nM. Further, the concentration at 30 min in series [1] (rat, brain, sc, 15 mg/kg s.c., 30 min before, n = 5, read-out: mean brain concentration) was determined as 5000 nM; in series [1] (rat, plasma, sc, 15 mg/kg s.c., 30 min before, n = 5, read-out: mean blood plasma concentration), 4000 ± 1000 nM. Further, the Kp at 0.5 h in series [1] (rat, brain, sc, 15 mg/kg, 15 mg/kg s.c., 30 min, read-out: brain to plasma ratio) turned out to be 1.2.
Turning to `Cc1c(S(=O)(=O)[O-])oc2c1C(=O)C(=O)c1c-2ccc2c1CCCC2(C)C.[Na+]` [Tanshinone TIIAS, tanshinone IIS sulfonic sodium], the mean brain concentration in series [1] (30 mg/kg i.p., 45 min before, n = 5) worked out at 500 ± 100 nM. The concentration at 45 min in series [1] (rat, brain, 30 mg/kg i.p., after 45 min, read-out: rat brain concentration) is 500 nM; in series [1] (rat, plasma, 30 mg/kg i.p., 45 min before, n = 5, read-out: mean blood plasma concentration), 31100 ± 5900 nM. The Kp at 0.75 h in series [1] (rat, brain, 30 mg/kg, 30 mg/kg i.p., read-out: brain to plasma ratio) was 0.02.
